{"source": "patent US20210369684A1", "about": "(MOUNT TAM THERAPEUTICS, INC., priority 2018, published 2021)", "key": {"TORC2": {"target": "T1, TORC2 (Homo sapiens, UniProt P42345+P62942)", "T1 construct": "endogenous in cells; host or cells: PC3 cells", "assay": "IC50 in PC3 cells, TORC2", "assay_type": "cell-based"}, "TORC1": {"target": "T2, TORC1 (Homo sapiens, UniProt P42345+P62942)", "T2 construct": "endogenous in cells; host or cells: PC3 cells", "assay": "IC50 in PC3 cells, TORC1", "assay_type": "cell-based"}, "Oral bioavailability": {"assay": "Oral bioavailability", "conditions": "in vivo", "from_the_text": "In order to measure bioavailability in vivo, a compound may be administered to a test animal (e.g. mouse or rat) both intraperitoneally (i.p.) or intravenously (i.v.) and orally (p.o.) and blood samples are taken at regular intervals to examine how the plasma concentration of the drug varies over time. The time course of plasma concentration over time can be used to calculate the absolute bioavailability of the compound as a percentage using standard models. An example of a typical protocol is described below. […] The time-course of plasma or whole blood concentrations can then be used to derive key parameters such as the area under the plasma or blood concentration-time curve (AUC-which is directly proportional to the total amount of unchanged drug that reaches the systemic circulation), the maximum (peak) plasma or blood drug concentration, the time at which maximum plasma or blood drug concentration occurs (peak time), additional factors which are used in the accurate determination of bioavailability include: the compound's terminal half-life, total body clearance, steady-state volume of distribution and F %. These parameters are then analyzed by non-compartmental or compartmental methods to give a calculated percentage bioavailability, for an example of this type of method see Gallant-[…] et al, 2000 and […] et al, 1998, and references therein."}, "6-OHDA injected mice": {"system": "6-OHDA injected mice", "assay": "Anti-TH immunohistochemistry, 6-OHDA-induced striatal denervation", "assay_type": "in vivo, mouse", "description": "Immunohistochemistry analysis using anti-tyrosine hydroxylase (TH) antibody was performed in mouse midbrain sections to quantify 6-OHDA-induced striatal denervation in mice injected with 6-OHDA and non-injected (control) sides of the brain. […] In contrast, both the 6-OHDA/rapamycin-treated and the 6-OHDA/Formula II-treated sides of the brain show increased staining with the anti-TH antibody, as indicated by the dark shading in those figures. FIG. 3B presents the mean and standard error of the mean (SEM) of the integrated density of anti-TH antibody staining in the striatum, as well as statistical analysis of the results for the groups of mice."}, "[1]": {"assay": "Whole blood concentrations after IP administration to mice (LC-MS/MS)", "assay_type": "in vivo, mouse", "conditions": "2 mg/kg IP QD x 3 days; for Formula II Concentrations in Mouse Whole Blood: individual animals 7, 8, 9", "description": "Shown below are whole blood concentrations following administration of the compound of Formula II to mice. The compound of Formula II was administered to mice at 2 mg/kg or 10 mg/kg for three days and the concentration of the compound in whole blood determined. These determinations were made using protein precipitation, liquid chromatography (LC), and mass spectrometry (MS/MS). Ten μl aliquots of whole blood and matrix calibration standards were distributed in a 96-well plate; 10 μl aliquots of blank matrix for matrix blanks and control blanks were included as controls. Ten μl of water was added to each sample followed by vortexing. One hundred sixty […] of internal standard was added to each sample except the matrix blanks; 160 μl 70:30 water:acetonitrile (ACN) was added to matrix blanks. This was followed by a […]. One hundred fifty μl of the resultant supernatant was then transferred to a new 96-well plate and the samples blown to dryness at 35° C. The resultant product was then reconstituted with 90 μl ACN."}}, "note": "Several values for one entry are separate records, joined by “and”; a condition that tells them apart may be missing. Identical values can stand only once.", "data": [{"molecule": "CO[C@H]1C[C@@H]2CC[C@@H](C)[C@@](O)(C2)C(=O)C(=O)N2CCCC[C@H]2C(=O)O[C@H]([C@H](C)C[C@H]2C[C@H]3C[C@@H]2C[C@@H]3O)CC(=O)[C@H](C)/C=C(\\C)[C@@H](O)[C@@H](OC)C(=O)[C@H](C)C[C@H](C)/C=C/C=C/C=C/1C", "note": "[Formula II, C37-[(1R,2S,4R,5S)-5-hyhroxybicyclo[2.2.1]heptane] rapamycin]", "values": [{"measurement": "IC50", "setting": "TORC2", "value": 5, "unit": "nM"}, {"measurement": "IC50", "setting": "TORC1", "value": 0.099, "unit": "nM"}, {"measurement": "TORC1/TORC2 Selectivity", "setting": "TORC1; from IC50 values", "value": 50, "unit": "x"}, {"measurement": "bioavailability", "setting": "Oral bioavailability", "value": "~47", "unit": "%"}, {"measurement": "6-OHDA-induced striatal denervation (anti-TH staining) compared with rapamycin", "setting": "6-OHDA injected mice; 6-OHDA injected mice, FIG. 3A", "value": "decreased 6-OHDA-induced denervation as compared to rapamycin"}, {"measurement": "6-OHDA-induced striatal denervation (anti-TH staining) compared with vehicle control", "setting": "6-OHDA injected mice; 6-OHDA injected mice, FIG. 3A", "value": "decreased 6-OHDA-induced denervation as compared to vehicle control"}, {"measurement": "integrated density of anti-TH staining in striatum, p versus vehicle control", "setting": "6-OHDA injected mice; one-way ANOVA, FIG. 3B", "value": "< 0.001"}, {"measurement": "Formula II Concentrations in Mouse Whole Blood", "setting": "[1]; Day 1, 1.00 h", "value": "452 ng/mL and 380 ng/mL and 317 ng/mL"}, {"measurement": "Formula II Concentrations in Mouse Whole Blood, Mean", "setting": "[1]; Day 1, 1.00 h", "value": 383, "unit": "ng/mL"}, {"measurement": "Formula II Concentrations in Mouse Whole Blood", "setting": "[1]; Day 1, 2.00 h", "value": "415 ng/mL (2×) and 378 ng/mL"}, {"measurement": "Formula II Concentrations in Mouse Whole Blood, Mean", "setting": "[1]; Day 1, 2.00 h", "value": 403, "unit": "ng/mL"}, {"measurement": "Formula II Concentrations in Mouse Whole Blood", "setting": "[1]; Day 1, 6.00 h", "value": "382 ng/mL and 520 ng/mL and 490 ng/mL"}, {"measurement": "Formula II Concentrations in Mouse Whole Blood, Mean", "setting": "[1]; Day 1, 6.00 h", "value": 464, "unit": "ng/mL"}, {"measurement": "Formula II Concentrations in Mouse Whole Blood", "setting": "[1]; Day 1, 24.0 h", "value": "12.2 ng/mL and 18.4 ng/mL and 14.7 ng/mL"}, {"measurement": "Formula II Concentrations in Mouse Whole Blood, Mean", "setting": "[1]; Day 1, 24.0 h", "value": 15.1, "unit": "ng/mL"}, {"measurement": "Formula II Concentrations in Mouse Whole Blood", "setting": "[1]; Day 2, 1.00 h", "value": "481 ng/mL and 208 ng/mL and 524 ng/mL"}, {"measurement": "Formula II Concentrations in Mouse Whole Blood, Mean", "setting": "[1]; Day 2, 1.00 h", "value": 404, "unit": "ng/mL"}, {"measurement": "Formula II Concentrations in Mouse Whole Blood", "setting": "[1]; Day 2, 2.00 h", "value": "501 ng/mL and 233 ng/mL and 570 ng/mL"}, {"measurement": "Formula II Concentrations in Mouse Whole Blood, Mean", "setting": "[1]; Day 2, 2.00 h", "value": 435, "unit": "ng/mL"}, {"measurement": "Formula II Concentrations in Mouse Whole Blood", "setting": "[1]; Day 2, 6.00 h", "value": "553 ng/mL and 632 ng/mL and 552 ng/mL"}, {"measurement": "Formula II Concentrations in Mouse Whole Blood, Mean", "setting": "[1]; Day 2, 6.00 h", "value": 579, "unit": "ng/mL"}, {"measurement": "Formula II Concentrations in Mouse Whole Blood", "setting": "[1]; Day 2, 24.0 h", "value": "15.3 ng/mL and 80.6 ng/mL and 35.2 ng/mL"}, {"measurement": "Formula II Concentrations in Mouse Whole Blood, Mean", "setting": "[1]; Day 2, 24.0 h", "value": 43.7, "unit": "ng/mL"}, {"measurement": "Formula II Concentrations in Mouse Whole Blood", "setting": "[1]; Day 3, 1.00 h", "value": "628 ng/mL and 726 ng/mL and 600 ng/mL"}, {"measurement": "Formula II Concentrations in Mouse Whole Blood, Mean", "setting": "[1]; Day 3, 1.00 h", "value": 651, "unit": "ng/mL"}, {"measurement": "Formula II Concentrations in Mouse Whole Blood", "setting": "[1]; Day 3, 2.00 h", "value": "478 ng/mL and 489 ng/mL and 535 ng/mL"}, {"measurement": "Formula II Concentrations in Mouse Whole Blood, Mean", "setting": "[1]; Day 3, 2.00 h", "value": 501, "unit": "ng/mL"}, {"measurement": "Formula II Concentrations in Mouse Whole Blood", "setting": "[1]; Day 3, 6.00 h", "value": "416 ng/mL and 745 ng/mL and 604 ng/mL"}, {"measurement": "Formula II Concentrations in Mouse Whole Blood, Mean", "setting": "[1]; Day 3, 6.00 h", "value": 588, "unit": "ng/mL"}]}]}
